Experimental data: US20220339187A1, “ANTIMICROBIAL PEPTIDE-SELENIUM NANOPARTICLES” (The University of Melbourne, priority 2019, published 2022)

Tests used:
[1] = tested on: Gram-negative bacteria; test: Colony forming unit assay (bactericidal effect); assay type: cell-based
Experimental: (§1) For the CFU measuring assay, 50 μL of different concentrations of Se NPs, Se NP-ε-PL or pure ε-PL in PBS solution was added into each well of 96-well microplates, then 50 μL MHB with 2.5×10^6 cells/mL bacteria were added into each well. After incubating the microplate at 37° C. for 90 min, the bacterial solutions were diluted 10^−1, 10^−2, 10^−3 and 10^−4 times, then 10 μL of each dilution was transferred onto agar plates with MHB. The agar plates were incubated overnight, before the bacterial colony forming units were observed and measured.

[2] = tested on: Pseudomonas aeruginosa (P. aeruginosa) strain PAO1-LAC ATCC 47085; test: CFU measuring assay / MBC calculation; assay type: cell-based; settings: 90 min at 37° C., linear regression, mean ± s.d.
Experimental: as §1
(§2) Concentration-killing curves were plotted with CFUs/mL as a function of antibacterial agent concentration, and linear regression analysis was used to determine the lowest concentration (MBC) at which the CFU/mL becomes zero.

[3] = tested on: Enterococcus faecalis (E. faecalis) ATCC 29212; test: CFU measuring assay / MBC calculation; assay type: cell-based; settings: 90 min at 37° C., linear regression, mean ± s.d.
Experimental: as §1, §2

[4] = tested on: Acinetobacter baumannii (A. baumannii) 2208 ATCC19606; test: CFU measuring assay / MBC calculation; assay type: cell-based; settings: 90 min at 37° C., linear regression, mean ± s.d.
Experimental: as §1, §2

[5] = tested on: methicillin-resistant Staphylococcus aureus (MRSA) ATCC 43300; test: CFU measuring assay / MBC calculation; assay type: cell-based; settings: 90 min at 37° C., linear regression, mean ± s.d.
Experimental: as §1, §2

[6] = tested on: Klebsiella pneumoniae (K. pneumoniae) ATCC 13883; test: CFU measuring assay / MBC calculation; assay type: cell-based; settings: 90 min at 37° C., linear regression, mean ± s.d.
Experimental: as §1, §2

[7] = tested on: methicillin-sensitive Staphylococcus aureus (S. aureus) ATCC 29213; test: CFU measuring assay / MBC calculation; assay type: cell-based; settings: 90 min at 37° C., linear regression, mean ± s.d.
Experimental: as §1, §2

[8] = tested on: Escherichia coli (E. coli) ATCC 25922; test: CFU measuring assay / MBC calculation; assay type: cell-based; settings: 90 min at 37° C., linear regression, mean ± s.d.
Experimental: as §1, §2

[9] = tested on: all tested bacterial strains (S. aureus, E. faecalis, E. coli, A. baumannii, P. aeruginosa, K. pneumoniae); test: Membrane disruption test (PI-positive cells); assay type: cell-based; settings: 6.25 or 12.5 μg/ml, 90 min
Experimental: The bacterial strains methicillin-sensitive S. aureus ATCC 29213, E. faecalis ATCC 29212, E. coli ATCC 25922, A. baumannii 2208 ATCC19606, P. aeruginosa strain PAO1-LAC ATCC 47085 and K. pneumoniae ATCC 13883 were cultured in MHB at 37° C. 50 μL of different concentrations of Se NPs, Se NP-ε-PL or pure ε-PL in PBS solution was added into each well of 96-well microplates. 50 μL MHB with 2.5×10^6 cells/mL bacteria was then added into each well. 50 μL MHB with 2.5×10^6 cells/mL bacteria was added to 50 μL PBS to act as untreated control. After 90 min incubation at 37° C., 0.1% of a green-fluorescent nucleic acid stain (SYTO 9, Thermo Fisher Scientific) and 0.1% of propidium iodide (PI) were added to each well and incubated again for 5 min. SYTO 9 can stain both live and dead Gram-positive and Gram-negative bacteria. PI is a red-florescent nuclear and chromosome counterstain but is not permeant to cells with intact plasma membranes. A Cell Lab Quanta SC MPL flow cytometer (Beckman Coulter) was adopted to measure the percent of PI-positive cells. Two independent tests were performed, and two parallel samples were used in each test for each variation.

[10] = tested on: mice; settings: dosage of 5 g/kg; cited from earlier work
[11] = tested on: human dermal fibroblast cells (HDF); test: Cell Counting Kit-8 (CCK-8) cytotoxicity assay; assay type: cell-based; settings: all tested concentrations (1-50 μg/mL), 24 h
Experimental: Two methods were adopted to test the cytotoxicity of Se NP-ε-PL, namely the Cell Counting Kit-8 (CCK-8) assay and Lactate Dehydrogenase (LDH) assay.
Cytotoxicity of Se NPs, Se NP-ε-PL and pure ε-PL was tested using human dermal fibroblast cells (HDF). HDF were cultured in Dulbecco's modified Eagle's medium (DMEM) with 10% foetal bovine serum (FBS), 100 U·mL^−1 penicillin and 100 μg·mL^−1 streptomycin at 37° C. in a humidified atmosphere of 5% CO2. For the CCK-8 tests, filter sterilised Se NPs, Se NP-ε-PL and pure ε-PL in PBS suspensions were diluted in PBS to concentrations of 20, 50, 100, 200, 500 and 1000 μg/mL and 5% (v/v) of these diluted solutions were added to DMEM to give final concentrations of Se NPs of 1, 2.5, 5, 10, 25 and 50 μg/mL The control groups involved DMEM as the negative control and DMEM with 10% dimethyl sulfoxide (DMSO) as the positive control, according to ISO 10993-12 standard. […] 100 μL medium from each well was then transferred to new 96-well plates and the absorbance of each well was tested using a microplate reader (M200 PRO, Tecan) at a wavelength of 450 nm. The cell viability (X) of each experimental group was calculated based on 5 samples according the following formula: […]
where OD1 represents the mean absorbance of experimental groups and the positive control group and OD2 represents the mean absorbance of the negative control group.

[12] = tested on: E. faecalis ATCC 29212; test: ROS production test (CellROX Orange, flow cytometry); assay type: cell-based, Enterococcus faecalis; settings: 6.25 or 12.5 μg/ml
Experimental: The bacterial strains methicillin-sensitive S. aureus (MSSA) ATCC 29213, E. faecalis ATCC 29212, E. coli ATCC 25922 were cultured in MHB at 37° C. 50 μL of different concentration of Se NPs, Se NP-ε-PL or pure ε-PL in PBS solution was added into each well of a 96-well microplate. 50 μL MHB with 2.5×10^6 cells/mL bacteria was then added into each well. After 90 min incubation at 37° C., CellROX® Orange Reagent was added into each well at a final concentration of 750 nM. The cells were incubated for a further 1 h. The fluorescence from the CellROX Orange Reagent was measured on FL-3 (red fluorescence channel) using the Cell Lab Quanta SC MPL flow cytometer (Beckman Coulter). Two independent experiments were done for this test, and two technical replicates were adopted for each independent experiment.

With ε-poly-L-lysine [ε-PL] the “bactericidal effect (CFU)” value [1] was “high bactericidal efficacy”, the MBC [2] was 25.0 ± 0.1 µg/mL and the MBC [3] was 134 ± 10 µg/mL. It also gave an MBC [4] of 50.0 ± 0.2 µg/mL, an MBC [5] of 149 ± 37 µg/mL and an MBC [6] of 12.9 ± 0.4 µg/mL. For the same substance, the MBC [7] was 50.6 ± 3.5 µg/mL, the MBC [8] was 24.3 ± 1.2 µg/mL and the “cell membrane disruption (PI positive cells)” value [9] was “membrane disruption effects”. For the same substance, the “mortality, acute oral toxicity” value [10] was “no mortality”, the “toxicity to HDF cells (cell viability, CCK-8)” value [11] was “no significant toxicity” and the “ROS production (high ROS production cells)” value [12] was “almost no promoting effects on ROS production”.
